{
  "source": "patent US20100080860A1",
  "about": "“Application of short-chain monocarboxylic acids for crop protection” (UNIVERSITAT JAUME I, priority 2005, published 2010)",
  "key": {"[1]": {"system": "B. cinerea", "test": "Hexanoic acid root application in soil cultivation, protection of Arabidopsis plants against B. cinerea", "type": "in vivo, Botrytis cinerea", "procedure": "(§1) Experiments were performed with 5-week-old Arabidopsis plants cultivated in soil. Two weeks after germination, the plants were transplanted into single pots and kept at a temperature of 20° C. day/18° C. night and 8.5 h light cycle for 24 h and 60% relative humidity (RH).\n(§2) The plants were treated with different concentrations of hexanoic acid (0.6 mM, 0.8 mM and 1 mM) and inoculated with 6 μl of 2.5×10^4 spores/mL Botrytis cinerea and 2×10^6 spores/mL Alternaria brassicicola.\n(§3) Sampling was performed at 48, 72, 96 and 120 hours after inoculation."}, "[2]": {"system": "B. cinerea spores", "test": "Direct antimicrobial effect in vitro: spore germination, mycelium growth, MIC/MFC in PDB", "type": "cell-based, Botrytis cinerea", "procedure": "Test mixture contained 4×10^6 conidia/ml PDB (potatodextrose broth, Difco, Detroit, Mich., USA). Treatments (hexanoic acid and heptanoic acid) were added to PDB from stock solutions in order to obtain the different concentrations to be used (0.06 to 30 mM). Medium pH was adjusted to 3.6-5.5 using HCl or NaOH. One ml of each mixture was dispensed into sterile 24-well microplates and then incubated at 20° C. under gentle stirring. Percentage of germinated spores was calculated after 20 h incubation by staining with 0.1% lacto-fucshin (1:1) followed by microscopic observation of 100 spores. Spores were considered to be germinated when the length of germ tube was equal to or greater than spore. For assessment of efficacy in long-term treatments, test culture was left for a 7-day incubation period under previously described conditions, and mycelium development was assessed as follows: 3 ml of each culture were vacuum-filtered through pre-weighed nitrocellulose filters (Millipore, ref. HAWP02500). The filters were dried at 85° C. until weight was constant at room temperature.\nFor measurement of treatment effects on mycelium growth, 9×10^6 spores were inoculated to a final volume of 150 ml PDB. After 20 h incubation, spores were examined for germination by microscopic analysis, then treatments were added, and pH was adjusted to 5.5. Cultures were incubated at 20° C. under gentle stirring. After 96 h, mycelium growth was measured by determining dry weight, as described herein. […] After MIC determination, minimum fungicidal concentration (MFC) was measured as follows. After 20 h incubation, an aliquot of the cultures, in which no growth had been detected, was taken, then washed three times and added to a fresh medium without added treatment. After 20 h incubation, under previously described conditions, the germination percentage was estimated. MFC is the minimum concentration of test compound at which microorganisms are not recovered."}, "[3]": {"system": "Botrytis cinerea", "test": "Post-harvest treatment: combined inoculation of hexanoic acid and Botrytis cinerea spores into tomato fruits", "type": "in vivo", "conditions": "combined inoculation with spores, preliminary studies", "procedure": "Preliminary studies were also performed on the application of hexanoic acid for post-harvest treatment."}, "[4]": {"system": "Pseudomonas syringe", "test": "Induced resistance in Arabidopsis thaliana against Pseudomonas syringe", "type": "in vivo"}, "[5]": {"system": "B. cinerea", "test": "Hexanoic acid root application in soil cultivation, protection of tomato plants against B. cinerea", "type": "in vivo, Botrytis cinerea", "conditions": "control: water", "procedure": "(§4) Experiments were performed with 4-week-old tomato plants (Cv. Ailsa Craig) in hydroponic cultivation. Before initiation of treatment, the plants were maintained in hydroponic cultivation for 1 week for habituation under such cultivation conditions. Treatment comprised the addition of hexanoic acid to a nutrient solution (Hoagland solution) at the following concentrations: 0.06 mM, 0.6 mM, 3 mM, 6 mM, 16 mM and 20 mM, pH was adjusted to 6. After 48 hours of treatment, the leaflets of the third and fourth true leaves were inoculated with 5 μl of a suspension containing 10^6 conidia B. cinerea/ml. Spores had previously been incubated in Gamborg medium (Duchefa Biochemie, The Netherlands) supplemented with sucrose and phosphate, over a period of 2 h. Spores were inoculated in this medium. For each treatment, 10 plants were used, which were kept under humidity- and temperature-controlled conditions (80% RH, 21° C.). Sampling was performed at 48, 72, 96 and 120 hours after inoculation.\nPlants were cultivated in soil and the solutions of hexanoic acid, at different concentrations, were prepared and applied in the same manner as that described above. Control was water."}, "[6]": {"system": "A. Brassicicola", "test": "Hexanoic acid root application in soil cultivation, protection of Arabidopsis plants against A. Brassicicola", "type": "in vivo, Alternaria brassicicola", "conditions": "0.8 mM", "procedure": "as §1, §2, §3"}, "[7]": {"system": "B. cinerea", "test": "Hexanoic acid root application in hydroponic cultivation, protection of tomato plants against B. cinerea", "type": "in vivo, Botrytis cinerea", "conditions": "control: water", "procedure": "as §4"}, "[8]": {"system": "B. cinerea", "test": "Spray application of hexanoic acid on tomato plants against B. cinerea", "type": "in vivo, Botrytis cinerea", "conditions": "for % inhibition of invention versus control: spray application, tomato plants"}, "[9]": {"system": "Peronospora parasitica", "test": "Induced resistance in Arabidopsis thaliana against Peronospora parasitica", "type": "in vivo"}, "[10]": {"system": "B. cinerea", "test": "Spray treatment of tomato plants with hexanoic acid potassium salt, B. cinerea inoculation", "type": "in vivo, Botrytis cinerea", "conditions": "for % inhibition of infection versus control: 72 h", "procedure": "Hexanoic acid potassium salt was provided by preparing a mole-to-mole solution of hexanoic acid with K2CO3. A concentrated solution was prepared, adjusted to pH 6, and then dilutions were performed in order to provide in-use concentrations, namely, 20 mM, 10 mM, 6 mM and 3 mM.\nThe plants were treated with the formed salt by spray application and then left to dry for 30 minutes. Afterwards, treated leaves, which were previously incubated for 2 h in Gamborg medium supplemented with sucrose and phosphate, were inoculated with 5 μl of a suspension containing 10^6 spores/ml of B. cinerea, and then stored in a high-humidity chamber at 25° C. for 72 h.\nThe infection diameter was measured and, finally, the germination percentage was determined."}},
  "note": "Where “and” joins values, the source holds several entries; their conditions need not be identical. Equal entries are not always repeated.",
  "data": [
    {"smiles": "CCCCCC(=O)O", "note": "[hexanoic acid]", "values": [
      {"measurement": "% inhibition of infection versus control", "setting": "[1]; 0.6 mM", "value": 10, "unit": "%"},
      {"measurement": "% inhibition of infection versus control", "setting": "[1]; 0.8 mM", "value": 28, "unit": "%"},
      {"measurement": "% inhibition of infection versus control", "setting": "[1]; 1 mM", "value": 38, "unit": "%"},
      {"measurement": "concentration from which spore germination is significantly decreased / inhibited", "setting": "[2]; B. cinerea spores in vitro", "value": "≥ 3", "unit": "mM"},
      {"measurement": "concentration that entirely inhibits germination", "setting": "[2]; B. cinerea spores in vitro", "value": 16, "unit": "mM"},
      {"measurement": "MFC", "setting": "[2]; Botrytis cinerea, 20 h, read-out: minimum fungicidal concentration (MFC)", "value": 16, "unit": "mM"},
      {"measurement": "reversibility of the inhibitor effect after spore washing", "setting": "[2]; spores treated at MFC, treatment removed by washing", "value": "irreversible fungicidal effect"},
      {"measurement": "mycelium development in already germinated spores", "setting": "[2]; treatment added after germination", "value": "inhibits mycelium development"},
      {"measurement": "infection rate of treated fruits", "setting": "[3]", "value": "significant decrease in the infection rate"},
      {"measurement": "induced resistance", "setting": "[4]", "value": "induced resistance"},
      {"measurement": "% inhibition of infection versus control", "setting": "[5]; 0.06 mM", "value": 60.15, "unit": "%"},
      {"measurement": "% inhibition of infection versus control", "setting": "[5]; 0.6 mM", "value": 49.77, "unit": "%"},
      {"measurement": "% inhibition of infection versus control", "setting": "[6]; time after inoculation 48", "value": 54.5, "unit": "%"},
      {"measurement": "% inhibition of infection versus control", "setting": "[6]; time after inoculation 72", "value": 40.5, "unit": "%"},
      {"measurement": "% inhibition of infection versus control", "setting": "[6]; time after inoculation 96", "value": 6.3, "unit": "%"},
      {"measurement": "% inhibition of infection versus control", "setting": "[7]; 0.06 mM", "value": 35.57, "unit": "%"},
      {"measurement": "% inhibition of infection versus control", "setting": "[7]; 0.6 mM", "value": 48.90, "unit": "%"},
      {"measurement": "% inhibition of infection versus control", "setting": "[7]; 3 mM", "value": 64.06, "unit": "%"},
      {"measurement": "% inhibition of infection versus control", "setting": "[7]; 6 mM", "value": 61.98, "unit": "%"},
      {"measurement": "% inhibition of infection versus control", "setting": "[7]; 16 mM", "value": 63.52, "unit": "%"},
      {"measurement": "% inhibition of infection versus control", "setting": "[7]; 20 mM", "value": 53.60, "unit": "%"},
      {"measurement": "% inhibition of invention versus control", "setting": "[8]; 3 mM", "value": 7.63, "unit": "%"},
      {"measurement": "% inhibition of invention versus control", "setting": "[8]; 16 mM", "value": "67% and 66.85%"},
      {"measurement": "% inhibition of invention versus control", "setting": "[8]; 20 mM", "value": "81% and 81.47%"},
      {"measurement": "curative effect in plants already inoculated", "setting": "[8]; plants already inoculated with B. cinerea, preliminary results", "value": "restrains the progress of necrosis"},
      {"measurement": "induced resistance", "setting": "[9]", "value": "induced resistance"}
    ]},
    {"smiles": "CCCCCC(=O)[O-].[K+]", "note": "[Hexanoic acid potassium salt]", "values": [
      {"measurement": "% inhibition of infection versus control", "setting": "[10]; 6 mM", "value": 52.1, "unit": "%"},
      {"measurement": "% inhibition of infection versus control", "setting": "[10]; 10 mM", "value": 61.3, "unit": "%"},
      {"measurement": "% inhibition of infection versus control", "setting": "[10]; 20 mM, listed as potassium salt, potassium salt", "value": 80, "unit": "%"},
      {"measurement": "% inhibition of infection versus control", "setting": "[10]; 20 mM, potassium salt", "value": 80.3, "unit": "%"},
      {"measurement": "% inhibition of infection versus control", "setting": "[10]; 3M", "value": 49.8, "unit": "%"},
      {"measurement": "inhibition at 3000 µM", "setting": "[10]; Botrytis cinerea, 3 mM, read-out: inhibition of fungal infection", "value": "~50", "unit": "%"}
    ]},
    {"smiles": "CCCCCCC(=O)O", "note": "[heptanoic acid]", "values": [
      {"measurement": "concentration from which spore germination is significantly decreased / inhibited", "setting": "[2]; B. cinerea spores in vitro", "value": "≥ 6", "unit": "mM"},
      {"measurement": "effect on spore germination compared with hexanoic acid", "setting": "[2]; B. cinerea spores in vitro", "value": "the same at the same concentration range"},
      {"measurement": "germ tube development", "setting": "[2]; B. cinerea spores in vitro", "value": "entirely prevents germ tube development"}
    ]}
  ]
}
